Test results as given in ChEMBL document CHEMBL1201862, “PubChem BioAssay data set” (2004).
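Exposure lasted 48 hours, with cells grown in 96-well plates and compounds tested at five concentrations. The concentration for 50% growth inhibition is given as GI50.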 Activity calls are given as the source filed them. No stated cut-off is given here; in the data, active = GI50 up to about 1.1 µM and inactive = higher.

Key:
Assay in all cases: NCI tumour cell line growth inhibition, 48 h
[1] = test system: 786-0
[2] = test system: A498
[3] = test system: A549
[4] = test system: ACHN
[5] = test system: BT-549
[6] = test system: CAKI-1
[7] = test system: CCRF-CEM
[8] = test system: COLO 205
[9] = test system: DLD-1
[10] = test system: DMS-114
[11] = test system: DMS-273
[12] = test system: DU-145
[13] = test system: EKVX
[14] = test system: HCC 2998
[15] = test system: HCT-116
[16] = test system: HCT-15
[17] = test system: HL-60
[18] = test system: HOP-62
[19] = test system: HOP-92
[20] = test system: HT-29
[21] = test system: Hs-578T
[22] = test system: IGROV-1
[23] = test system: K562
[24] = test system: KM-20L2
[25] = test system: KM12
[26] = test system: LOX IMVI
[27] = test system: LXFL 529
[28] = test system: M14
[29] = test system: M19-MEL
[30] = test system: MCF7
[31] = test system: MDA-MB-231
[32] = test system: MDA-MB-435
[33] = test system: MDA-N
[34] = test system: MOLT-4
[35] = test system: Malme-3M
[36] = test system: NCI-H226
[37] = test system: NCI-H23
[38] = test system: NCI-H460
[39] = test system: NCI-H522
[40] = test system: NCI/ADR-RES
[41] = test system: OVCAR-3
[42] = test system: OVCAR-4
[43] = test system: OVCAR-5
[44] = test system: OVCAR-8
[45] = test system: PC-3
[46] = test system: RPMI-8226
[47] = test system: RXF 393
[48] = test system: RXF 631
[49] = test system: SF-268
[50] = test system: SF-295
[51] = test system: SF-539
[52] = test system: SK-MEL-28
[53] = test system: SK-MEL-2
[54] = test system: SK-MEL-5
[55] = test system: SK-OV-3
[56] = test system: SN12C
[57] = test system: SNB-19
[58] = test system: SNB-75
[59] = test system: SNB-78
[60] = test system: SR
[61] = test system: SW-620
[62] = test system: T47D
[63] = test system: TK-10
[64] = test system: U-251
[65] = test system: UACC-257
[66] = test system: UACC-62
[67] = test system: UO-31
[68] = test system: XF498

## C=C(c1nc2ccc(Cl)cc2[nH]c1=O)C(O)c1ccc(C(O)C(=O)c2nc3ccc(Cl)cc3[nH]c2=O)cc1 (stereo not drawn)
[1]
  GI50: > 100 µM (inactive)
[2]
  GI50: > 100 µM (inactive)
[3]
  GI50: > 100 µM (inactive)
[4]
  GI50: 61.7 µM (inactive)
[5]
  GI50: > 100 µM (inactive)
[6]
  GI50: > 100 µM (inactive)
[7]
  GI50: 4.28 µM (inactive)
[8]
  GI50: > 100 µM (inactive)
[9]
  GI50: > 100 µM (inactive)
[10]
  GI50: 35.4 µM (inactive)
[11]
  GI50: > 100 µM (inactive)
[12]
  GI50: > 100 µM (inactive)
[13]
  GI50: > 100 µM (inactive)
[14]
  GI50: > 100 µM (inactive)
[15]
  GI50: > 100 µM (inactive)
[16]
  GI50: 74.5 µM
[17]
  GI50: 5.04 µM (inactive)
[18]
  GI50: > 100 µM (inactive)
[19]
  GI50: > 100 µM (inactive)
[20]
  GI50: > 100 µM (inactive)
[21]
  GI50: > 100 µM (inactive)
[22]
  GI50: > 68.2 µM (inactive)
[23]
  GI50: 49 µM (inactive)
[24]
  GI50: 62.4 µM (inactive)
[25]
  GI50: 60.1 µM (inactive)
[26]
  GI50: > 83.6 µM (inactive)
[27]
  GI50: 81.1 µM (inactive)
[28]
  GI50: > 100 µM (inactive)
[29]
  GI50: > 100 µM (inactive)
[30]
  GI50: > 100 µM (inactive)
[31]
  GI50: > 100 µM (inactive)
[32]
  GI50: > 100 µM (inactive)
[33]
  GI50: > 100 µM (inactive)
[34]
  GI50: 33.2 µM (inactive)
[35]
  GI50: > 100 µM (inactive)
[36]
  GI50: > 100 µM (inactive)
[37]
  GI50: > 100 µM (inactive)
[38]
  GI50: > 100 µM (inactive)
[39]
  GI50: 47.1 µM (inactive)
[40]
  GI50: > 100 µM (inactive)
[41]
  GI50: > 100 µM (inactive)
[42]
  GI50: > 100 µM (inactive)
[43]
  GI50: > 100 µM (inactive)
[44]
  GI50: > 100 µM (inactive)
[45]
  GI50: 87.9 µM (inactive)
[46]
  GI50: 9.06 µM (inactive)
[47]
  GI50: > 100 µM (inactive)
[48]
  GI50: > 100 µM (inactive)
[49]
  GI50: > 100 µM (inactive)
[50]
  GI50: > 100 µM (inactive)
[51]
  GI50: > 100 µM (inactive)
[52]
  GI50: > 100 µM (inactive)
[53]
  GI50: > 100 µM (inactive)
[54]
  GI50: > 95.1 µM (inactive)
[55]
  GI50: > 100 µM (inactive)
[56]
  GI50: > 100 µM (inactive)
[57]
  GI50: > 100 µM (inactive)
[58]
  GI50: > 100 µM (inactive)
[59]
  GI50: > 100 µM (inactive)
[60]
  GI50: 83.6 µM (inactive)
[61]
  GI50: > 100 µM (inactive)
[62]
  GI50: > 100 µM (inactive)
[63]
  GI50: > 100 µM (inactive)
[64]
  GI50: > 100 µM (inactive)
[65]
  GI50: > 100 µM (inactive)
[66]
  GI50: > 79.6 µM (inactive)
[67]
  GI50: > 91 µM (inactive)
[68]
  GI50: > 100 µM (inactive)
